Measurements: the NIST ThermoML archive (doi:10.1021/je501133u)

Test: xn = mol fraction of the nth substance listed
Conditions: 100 kPa, Liquid; for viscosity: Falling or rolling sphere viscometry; for mass density: Vibrating tube method

CCCCCCCO [heptan-1-ol] + CCO
Conditions | mass density [kg/m3] | viscosity [mPa·s]
293.15 K, x2 = 0 | 822.3 | 7.15
293.15 K, x2 = 0.1 | 820.6 | 6.21
293.15 K, x2 = 0.2004 | 818.7 | 5.36
293.15 K, x2 = 0.3007 | 816.9 | 4.63
293.15 K, x2 = 0.3995 | 814.7 | 4.04
293.15 K, x2 = 0.5007 | 812.1 | 3.41
293.15 K, x2 = 0.5995 | 809 | 2.85
293.15 K, x2 = 0.7001 | 805.5 | 2.34
293.15 K, x2 = 0.8002 | 801.4 | 1.9
293.15 K, x2 = 0.9003 | 796.5 | 1.52
298.15 K, x2 = 0 | 818.8 | 6.07
298.15 K, x2 = 0.1 | 817.1 | 5.29
298.15 K, x2 = 0.2004 | 815.1 | 4.59
298.15 K, x2 = 0.3007 | 813.3 | 4
298.15 K, x2 = 0.3995 | 811.1 | 3.51
298.15 K, x2 = 0.5007 | 808.4 | 2.99
298.15 K, x2 = 0.5995 | 805.3 | 2.52
298.15 K, x2 = 0.7001 | 801.6 | 2.09
298.15 K, x2 = 0.8002 | 797.4 | 1.71
298.15 K, x2 = 0.9003 | 792.4 | 1.38
303.15 K, x2 = 0 | 815.3 | 5.18
303.15 K, x2 = 0.1 | 813.6 | 4.54
303.15 K, x2 = 0.2004 | 811.6 | 3.96
303.15 K, x2 = 0.3007 | 809.7 | 3.48
303.15 K, x2 = 0.3995 | 807.4 | 3.07
303.15 K, x2 = 0.5007 | 804.7 | 2.64
303.15 K, x2 = 0.5995 | 801.5 | 2.23
303.15 K, x2 = 0.7001 | 797.8 | 1.87
303.15 K, x2 = 0.8002 | 793.5 | 1.54
303.15 K, x2 = 0.9003 | 788.3 | 1.25
308.15 K, x2 = 0 | 811.8 | 4.44
308.15 K, x2 = 0.1 | 810 | 3.91
308.15 K, x2 = 0.2004 | 808 | 3.44
308.15 K, x2 = 0.3007 | 806 | 3.03
308.15 K, x2 = 0.3995 | 803.8 | 2.7
308.15 K, x2 = 0.5007 | 800.9 | 2.33
308.15 K, x2 = 0.5995 | 797.7 | 1.99
308.15 K, x2 = 0.7001 | 793.9 | 1.67
308.15 K, x2 = 0.8002 | 789.5 | 1.39
308.15 K, x2 = 0.9003 | 784.2 | 1.13
313.15 K, x2 = 0 | 808.2 | 3.83
313.15 K, x2 = 0.1 | 806.4 | 3.39
313.15 K, x2 = 0.2004 | 804.4 | 3
313.15 K, x2 = 0.3007 | 802.4 | 2.66
313.15 K, x2 = 0.3995 | 800.1 | 2.38
313.15 K, x2 = 0.5007 | 797.2 | 2.07
313.15 K, x2 = 0.5995 | 793.8 | 1.78
313.15 K, x2 = 0.7001 | 790 | 1.5
313.15 K, x2 = 0.8002 | 785.4 | 1.26
313.15 K, x2 = 0.9003 | 780 | 1.03
318.15 K, x2 = 0 | 804.6 | 3.33
318.15 K, x2 = 0.1 | 802.8 | 2.96
318.15 K, x2 = 0.2004 | 800.7 | 2.63
318.15 K, x2 = 0.3007 | 798.7 | 2.35
318.15 K, x2 = 0.3995 | 796.3 | 2.11
318.15 K, x2 = 0.5007 | 793.4 | 1.85
318.15 K, x2 = 0.5995 | 790 | 1.6
318.15 K, x2 = 0.7001 | 786 | 1.36
318.15 K, x2 = 0.8002 | 781.4 | 1.14
318.15 K, x2 = 0.9003 | 775.8 | 0.94
323.15 K, x2 = 0 | 801 | 2.89
323.15 K, x2 = 0.1 | 799.1 | 2.59
323.15 K, x2 = 0.2004 | 797 | 2.31
323.15 K, x2 = 0.3007 | 794.9 | 2.08
323.15 K, x2 = 0.3995 | 792.5 | 1.88
323.15 K, x2 = 0.5007 | 789.5 | 1.65
323.15 K, x2 = 0.5995 | 786 | 1.44
323.15 K, x2 = 0.7001 | 782 | 1.23
323.15 K, x2 = 0.8002 | 777.2 | 1.04
323.15 K, x2 = 0.9003 | 771.5 | 0.87
328.15 K, x2 = 0 | 797.4 | 2.54
328.15 K, x2 = 0.1 | 795.4 | 2.28
328.15 K, x2 = 0.2004 | 793.3 | 2.05
328.15 K, x2 = 0.3007 | 791.2 | 1.84
328.15 K, x2 = 0.3995 | 788.7 | 1.68
328.15 K, x2 = 0.5007 | 785.6 | 1.48
328.15 K, x2 = 0.5995 | 782.1 | 1.29
328.15 K, x2 = 0.7001 | 777.9 | 1.11
328.15 K, x2 = 0.8002 | 773 | 0.94
328.15 K, x2 = 0.9003 | 767.1 | 0.79
